Experimental data published in publication PMC9586926, “An efflux-susceptible antibiotic-adjuvant with systemic efficacy against mouse infections” (Scientific Reports, 2022).
Where a SMILES comes first, the peptide text is derived from it. [ ]: non-standard residue; d: D form. The star is where a group is joined. 12Ado = NCCCCCCCCCCCC(=O)O; Decanoyl = CCCCCCCCCC(=O)*; Dab = NCC[C@H](N)C(=O)O

Columns and labels:
E. coli 25922 [1] = assay: Peritonitis-sepsis infection model in neutropenic mice; assay type: in vivo; settings: n = 10
Method: The study is reported in accordance with ARRIVE guidelines.
Lipopeptides potential application in monotherapy and/or combination-therapies was explored with two infection models. In the peritonitis-sepsis model, mice (n = 10 per group) were first rendered neutropenic by two intraperitoneal (I.P.) injections of 0.3 ml containing 150 mg/kg and 100 mg/kg cyclophosphamide, administered 4 days and 1 day before the experiment, respectively. […] Mice survival was recorded for up to 7 days. In a variant assay, bacteria in PBS (1.4 × 10^6) were pre-treated with 10 µM lipopeptides for 15 min, similarly administered, and mice survival was recorded for up to 3 days. In the urinary-tract infection (UTI) model, mice (N = 5 mice per group) were anesthetized by a single I.P. injection (0.2 ml) containing a mixture of ketamine (100 mg/kg) and xylazine (5 mg/kg). Following application of an analgesic 2% lidocaine gel on their penises, mice were infected intra-urethraly using a 24-gauge catheter with 1.2 × 10^8 CFU/mouse (0.05 ml) and treated with the vehicle control (S.C., 1 h post-infection), 2 mg/kg rifampin (oral gavage, immediately before anesthesia), 7.5 mg/kg q.i.d. lipopeptides (S.C., starting 1 h post-infection), or both. Mice were sacrificed 24 h post-infection, their bladder and kidneys aseptically excised, suspended in 5 ml of sterile PBS, homogenized for 3 min using a bench-top homogenizer, serially tenfold diluted in saline, plated on LB agar, and incubated over-night at 37 °C for enumeration.

E. coli 25922 [2] = assay: Outer membrane permeabilization, NPN fluorescence; assay type: cell-based, Escherichia coli
Method: Lipopeptides ability to permeabilize the OM was evaluated using fluorescent measurements of N-phenyl-1-naphthylamine (NPN)[67]. 200 µl of an over-night culture were diluted into 10 ml of fresh LB medium and incubated at 37 °C with shaking until reaching O.D.600 nm = 0.5. The culture was then centrifuged at 10,000 RCF for 3 min, the supernatant aspirated, and the pellet resuspended in equal volume of 5 mM HEPES containing 5 mM glucose (pH = 7.2). This suspension was then mixed with NPN (5 mM in acetone) to reach a final NPN concentration of 10 µM. Then, 190 µl of this mixture were dispensed into black microtiter plates, mixed with 10 µl of HEPES containing serial twofold dilutions of lipopeptides and fluorescence (excitation: 360 nm; emission: 460 nm) was recorded immediately for up to 10 min at 37 °C with shaking[29] (BioTek Instruments Synergy HT; Winooski, VT, USA). In a modified version of this assay, in which efflux was inhibited, bacteria (similarly prepared) were incubated with the lipopeptides in presence or absence of 100 µM CCCP for 5 min. Samples were then twice centrifuged at 10,000 RCF for 3 min, the supernatant aspirated, and the pellet resuspended in equal volume of 5 mM HEPES containing 20 mM glucose (pH = 7.2), so as to re-energize the efflux machinery. NPN was then added (final concentration of 10 µM) and fluorescence was recorded immediately thereafter.

E. coli = assay: MIC, broth microdilution; assay type: cell-based, Escherichia coli; settings: broth microdilution in LB, 18–24 h, 37 °C; n = 4 strains; published data in bold (not discernible)
From the text: (§1) Bacteria used in this study consisted of standard American Type Culture Collection (ATCC; Biological Industries, Beit Haemek, Israel) strains, clinically isolated (CI; Sourasky Medical Center, Tel Aviv, Israel) strains, as well as isogenic mutant strains. Gram-negative bacteria included Acinetobacter baumannii ATCC 19606; Escherichia coli ATCC 25922, 35218, CFT073, CI 14384, 16327, and the isogenic pair Ag100 (wild-type) and its efflux deficient mutant Ag100a (ΔacrAB); Klebsiella pneumoniae CI 1287, 224; Pseudomonas aeruginosa ATCC 27853, CI 1278, 8634; Salmonella enterica serovar Typhimurium ATCC 14028 (wild-type) and its isogenic efflux deficient mutant ΔacrAB. Bacteria were grown in Luria–Bertani broth (LB; 5 g/l NaCl, 5 g/l yeast extract, 10 g/l tryptone; pH = 7.0) at 37 °C with shaking. Over-night cultures were diluted 10-folds into fresh growth-medium and incubated at 37 °C with shaking until reaching mid-logarithmic phase. Then, bacterial concentrations were adjusted using O.D.600 nm measurements, and bacteria were subjected to the experimental procedures listed herein.
(§2) MIC was determined according to the broth microdilution method: antimicrobials were subjected to serial twofold dilutions in LB medium, and incubated with 5 × 10^5 CFU/ml of bacteria (final volume of 200 µl) for 18–24 h at 37 °C. Then, O.D.620 nm was measured (BioTek Instruments Synergy HT; Winooski, VT, USA), and the MIC was defined as the lowest antimicrobial concentration for which no increase in O.D.620 nm was evident, compared to the untreated control.

P. aeruginosa = assay: MIC, broth microdilution; assay type: cell-based, Pseudomonas aeruginosa; settings: broth microdilution in LB, 18–24 h, 37 °C; n = 3 strains
From the text: as §1, §2

CCCCCCCCCC(=O)N[C@@H](CCN)C(=O)N[C@@H](CCN)C(=O)NCCCCCCCCCCCC(=O)N[C@@H](CCN)C(N)=O [C10BBc12B, decanoyl-bis.diaminobutyrate-aminododecanoyl-diaminobutyrate-amide] (Decanoyl-[Dab][Dab][12Ado][Dab]-NH2)
survival rate, monotherapy (E. coli 25922 [1]; 1.7 × 10^6 CFU/mouse, […] C10BBc12B S.C. 1 h post-infection or 20 mg/kg rifampin oral gavage): 40% | efficacy, monotherapy, higher inoculum (E. coli 25922 [1]; 1.9 × 10^6 CFU/mouse, […] C10BBc12B S.C. or 20 mg/kg rifampin oral): virtually no efficacy | mice mortality after infection with bacteria pre-treated with lipopeptide (E. coli 25922 [1]; modified model, 1.4 × 10^6 CFU/mouse pre-treated 15 min with 10 µM in PBS, I.P., three days): delayed the onset of mice mortality and reduced the overall lethality rate | reduction of NPN fluorescence by 10 mM MgCl2 (E. coli 25922 [2]): almost complete | MIC E. coli (n=4) (E. coli): 50 µM | MIC P. aeruginosa (n=3) (P. aeruginosa): ≥ 50 µM
